# Experiments:
# [1] = test system: gapA; test: Shigella gene expression qRT-PCR, internal control gapA; type: cell-based, S. flexneri; conditions: for Average ΔΔCt / Ct / RQ (2^−ΔΔCt) / ΔΔCt^2 (normalized to rrsA): gapA, example data
# Experimental: Real-time quantitative reverse transcription PCR (qRT-PCR) was performed to test the effects of SE-1 on the expression of the VirF regulated genes virB, icsA, icsB and ipaB. The gapA and rrsA transcripts were used as internal controls. These are constitutively expressed Shigella genes commonly used to normalize mRNA levels. S. flexneri strain SME4331, which carries a null mutation in ipgD (ipgD), was grown at 30° C. overnight in TSB with ampicillin, diluted into the same medium to an OD600 of ˜0.1, and 1 ml aliquots further grown at 30° C. (DMSO only) or at 37° C. (SE-1 at 20 or 40 μM, or DMSO only, all 0.3% DMSO). Cells were grown to an OD600 of 1.0 (˜2.5 h) and RNA was isolated using an RNeasy MiniElute Cleanup Kit (Qiagen, Germantown, Md.), with DNA contamination eliminated using a Turbo DNase Kit (Ambion, Austin, Tex.). Complementary DNA (cDNA) was synthesized by random priming using a cDNA Reverse Transcription Kit (Applied Biosystems, Foster City, Calif.). Primers were tested for PCR specificity using genomic DNA template to ensure a single amplicon of the expected size for each primer pair, and validated using 5-fold dilutions of cDNA (2000 to 0.0256 ng) to ensure a linear plot of cycle threshold (Ct) versus cDNA concentration. Validated primer sets were used to test mRNA profiles in reactions that contained 10 ng of cDNA, 10 μl of SYBR green master mix (Applied Biosystems), specific primers (0.5 μM each) and water to a final volume of 20 μl, using a Step One Plus Real-Time PCR System (Applied Biosystems). The data was analyzed using the 2^−ΔΔCt method, and also by Applied Biosystems real-time analysis software. […] In brief, ΔΔCt values [ΔΔCt=(Ct,Target−Ct,Internal Control)SE-1−(Ct,Target−Ct,Internal Control)no SE-1] were separately obtained for each sample relative to two internal controls, gapA and rrsA. The ΔΔCt values relative to the two internal controls for each sample were averaged and then used to calculate the relative expression levels (2^−ΔΔCt). As a control, we also normalized each internal control to the other internal control. Control reactions used templates generated without reverse transcriptase to ensure low genomic DNA contamination. To ensure that products were not likely to be due to primer dimer artifacts, additional control samples were performed in which reaction mixtures contained primers alone (no template).
# [2] = test system: Shigella; test: Shigella growth; type: cell-based, S. flexneri
# [3] = target: RhaS (Escherichia coli, UniProt P09377); test: % Inhibition at 82.5 μM, RhaS; type: cell-based, E. coli
# Chain of RhaS (P09377 whole entry): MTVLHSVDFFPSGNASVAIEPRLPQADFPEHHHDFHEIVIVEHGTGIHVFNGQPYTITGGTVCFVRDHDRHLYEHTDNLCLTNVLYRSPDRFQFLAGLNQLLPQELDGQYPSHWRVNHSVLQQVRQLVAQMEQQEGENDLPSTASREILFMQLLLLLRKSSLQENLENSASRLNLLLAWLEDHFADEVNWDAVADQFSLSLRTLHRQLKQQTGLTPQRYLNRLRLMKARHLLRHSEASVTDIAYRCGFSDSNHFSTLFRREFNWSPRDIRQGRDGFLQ
compound,measurement,setting,value
"CCCCN1C=C(c2ccc3ccccc3n2)C(C[N+](=O)[O-])c2ccccc21 (stereo not shown) [Compound 1, 1-butyl-4-(nitromethyl)-3-quinolin-2-yl-4H-quinoline]",expression of control gene gapA,"[1]; 40 μM SE-1, normalized to rrsA",no decrease
same,Average ΔΔCt,[1]; SE-1 20 μM,1
same,Ct,[1]; SE-1 20 μM,27.33
same,RQ (2^−ΔΔCt),[1]; SE-1 20 μM,0.5
same,ΔΔCt^2 (normalized to rrsA),[1]; SE-1 20 μM,1
same,Average ΔΔCt,[1]; SE-1 40 μM,−0.69
same,Ct,[1]; SE-1 40 μM,26.76
same,RQ (2^−ΔΔCt),[1]; SE-1 40 μM,0.62
same,ΔΔCt^2 (normalized to rrsA),[1]; SE-1 40 μM,−0.69
same,growth of S. flexneri samples,"[2]; 80 μM SE-1, virB-lacZ strain",exhibited growth defects
same,decrease in the Shigella growth rate,"[2]; concentrations up to 40 μM, SME4331",no detectable decrease
same,Shigella growth rate,"[2]; strain M90T, invasion study with human epithelial cells",not the Shigella growth rate
same,% Inhibition at 82.5 μM RhaS,[3],90%

# Reference: patent US20140088144A1, “INHIBITING MICROBIAL INFECTIONS” (THE UNIVERSITY OF KANSAS, priority 2012, published 2014)
